From ChEMBL document CHEMBL4028801, “A multifactorial approach to hepatobiliary transporter assessment enables improved therapeutic compound development” (Toxicol Sci, 2013)
Values belong to the compound of their own block, whether it stands above or below them.

Tests used:
[1] = Drug concentration at steady state in patient with osteomyelitis at 1500 mg, po QD after 24 hrs; format: ADME, organism-based; settings: human, in vivo, read-out: Css
[2] = molecular target: ATP-binding cassette sub-family C member 3 (Homo sapiens, UniProt O15438); assay: Inhibition of human MRP3 overexpressed in Sf9 insect cell membrane vesicles assessed as uptake of [3H]-estradiol-17beta-D-glucuronide in presence of ATP and GSH measured after 10 mins by membrane vesicle transport assay; format: ADME, cell-based
ATP-binding cassette sub-family C member 3, sequence (O15438 whole entry): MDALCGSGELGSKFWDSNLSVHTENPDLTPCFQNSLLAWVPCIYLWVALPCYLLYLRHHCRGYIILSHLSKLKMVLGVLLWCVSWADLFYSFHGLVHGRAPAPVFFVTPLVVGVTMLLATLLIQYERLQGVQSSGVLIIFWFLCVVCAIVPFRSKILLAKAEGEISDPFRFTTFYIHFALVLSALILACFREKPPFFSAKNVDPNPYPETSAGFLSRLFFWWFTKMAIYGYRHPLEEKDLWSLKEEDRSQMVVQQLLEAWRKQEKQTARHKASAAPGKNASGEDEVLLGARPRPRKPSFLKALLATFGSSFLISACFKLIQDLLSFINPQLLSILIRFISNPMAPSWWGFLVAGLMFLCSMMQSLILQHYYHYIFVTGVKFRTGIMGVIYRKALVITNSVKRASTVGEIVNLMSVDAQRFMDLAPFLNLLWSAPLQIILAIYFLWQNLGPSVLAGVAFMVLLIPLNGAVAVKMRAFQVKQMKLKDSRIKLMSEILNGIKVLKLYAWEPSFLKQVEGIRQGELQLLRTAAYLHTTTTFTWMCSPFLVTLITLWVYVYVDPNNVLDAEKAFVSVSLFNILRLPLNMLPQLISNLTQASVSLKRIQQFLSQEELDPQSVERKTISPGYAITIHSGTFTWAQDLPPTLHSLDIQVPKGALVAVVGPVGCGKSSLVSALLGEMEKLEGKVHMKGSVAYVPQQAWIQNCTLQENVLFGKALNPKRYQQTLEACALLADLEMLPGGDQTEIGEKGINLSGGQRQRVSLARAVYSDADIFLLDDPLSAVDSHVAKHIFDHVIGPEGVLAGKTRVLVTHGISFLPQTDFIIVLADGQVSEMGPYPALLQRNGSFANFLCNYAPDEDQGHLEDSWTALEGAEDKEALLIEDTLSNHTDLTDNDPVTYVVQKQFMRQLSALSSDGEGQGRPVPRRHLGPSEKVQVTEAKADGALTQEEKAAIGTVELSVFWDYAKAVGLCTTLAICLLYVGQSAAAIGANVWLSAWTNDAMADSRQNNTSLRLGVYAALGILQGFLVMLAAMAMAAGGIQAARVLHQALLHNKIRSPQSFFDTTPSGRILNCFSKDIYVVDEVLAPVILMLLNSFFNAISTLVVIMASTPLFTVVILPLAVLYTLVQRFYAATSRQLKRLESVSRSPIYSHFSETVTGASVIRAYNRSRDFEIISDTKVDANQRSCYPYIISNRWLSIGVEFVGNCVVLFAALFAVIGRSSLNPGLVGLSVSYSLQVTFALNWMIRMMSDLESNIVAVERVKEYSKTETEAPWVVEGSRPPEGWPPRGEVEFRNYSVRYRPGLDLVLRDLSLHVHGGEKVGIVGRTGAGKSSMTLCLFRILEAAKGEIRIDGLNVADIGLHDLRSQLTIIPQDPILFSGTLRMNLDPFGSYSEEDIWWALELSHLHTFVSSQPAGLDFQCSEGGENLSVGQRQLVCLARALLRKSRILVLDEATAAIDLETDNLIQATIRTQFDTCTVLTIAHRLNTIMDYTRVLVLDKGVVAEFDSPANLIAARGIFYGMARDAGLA

[3] = AUC in patient with osteomyelitis at 1500 mg, po QD after 24 hrs; format: ADME, organism-based; parameters: time < 24 hr, dose 1500 mg, route oral; settings: human, in vivo
[4] = Ratio of drug concentration at steady state in patient with osteomyelitis at 1500 mg, po QD after 24 hrs to IC50 for human BSEP overexpressed in Sf9 insect cells; format: ADME, organism-based; settings: in vivo
[5] = molecular target: T1, ATP-binding cassette sub-family C member 4 (Homo sapiens, UniProt O15439); assay: Inhibition of human MRP4 overexpressed in Sf9 cell membrane vesicles assessed as uptake of [3H]-estradiol-17beta-D-glucuronide in presence of ATP and GSH measured after 20 mins by membrane vesicle transport assay; format: ADME, cell-based
T1 sequence (O15439 whole entry): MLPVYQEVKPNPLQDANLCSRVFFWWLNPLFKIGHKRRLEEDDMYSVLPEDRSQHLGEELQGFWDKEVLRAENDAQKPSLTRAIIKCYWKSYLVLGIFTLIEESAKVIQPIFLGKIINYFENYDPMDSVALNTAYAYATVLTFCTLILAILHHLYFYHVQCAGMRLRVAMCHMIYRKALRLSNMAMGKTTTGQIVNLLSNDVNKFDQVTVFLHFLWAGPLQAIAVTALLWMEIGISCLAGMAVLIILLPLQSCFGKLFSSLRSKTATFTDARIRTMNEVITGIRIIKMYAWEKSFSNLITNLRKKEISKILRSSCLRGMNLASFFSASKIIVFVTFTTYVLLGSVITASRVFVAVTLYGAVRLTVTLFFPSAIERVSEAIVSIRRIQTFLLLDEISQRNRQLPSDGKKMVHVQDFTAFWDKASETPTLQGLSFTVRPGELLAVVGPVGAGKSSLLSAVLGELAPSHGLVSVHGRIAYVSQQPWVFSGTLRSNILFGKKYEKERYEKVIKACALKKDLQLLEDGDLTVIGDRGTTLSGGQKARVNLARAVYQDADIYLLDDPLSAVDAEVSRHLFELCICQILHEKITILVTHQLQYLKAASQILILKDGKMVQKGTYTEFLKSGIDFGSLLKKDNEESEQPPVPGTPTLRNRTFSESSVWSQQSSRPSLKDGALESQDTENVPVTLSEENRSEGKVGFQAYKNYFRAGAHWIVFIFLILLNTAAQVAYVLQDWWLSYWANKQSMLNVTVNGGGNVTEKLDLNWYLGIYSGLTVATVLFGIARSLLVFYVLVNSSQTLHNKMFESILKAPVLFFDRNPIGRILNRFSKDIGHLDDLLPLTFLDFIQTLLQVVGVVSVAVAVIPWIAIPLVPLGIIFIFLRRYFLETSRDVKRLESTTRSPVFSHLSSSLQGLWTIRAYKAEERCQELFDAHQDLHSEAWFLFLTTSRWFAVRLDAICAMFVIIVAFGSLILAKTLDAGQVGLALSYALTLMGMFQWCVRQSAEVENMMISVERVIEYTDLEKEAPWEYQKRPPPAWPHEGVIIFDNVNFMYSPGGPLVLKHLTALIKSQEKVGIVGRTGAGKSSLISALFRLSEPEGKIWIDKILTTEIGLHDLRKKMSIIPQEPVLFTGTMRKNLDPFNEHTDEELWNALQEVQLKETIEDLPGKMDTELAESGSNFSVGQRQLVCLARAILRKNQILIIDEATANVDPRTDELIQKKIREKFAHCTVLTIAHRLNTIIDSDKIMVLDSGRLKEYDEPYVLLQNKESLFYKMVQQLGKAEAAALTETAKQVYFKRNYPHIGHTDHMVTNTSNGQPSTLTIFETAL

[6] = molecular target: ATP-binding cassette sub-family C member 2 (Homo sapiens, UniProt Q92887); assay: Inhibition of human MRP2 overexpressed in Sf9 cell membrane vesicles assessed as uptake of [3H]-estradiol-17beta-D-glucuronide in presence of ATP and GSH measured after 20 mins by membrane vesicle transport assay
ATP-binding cassette sub-family C member 2, sequence (Q92887 whole entry): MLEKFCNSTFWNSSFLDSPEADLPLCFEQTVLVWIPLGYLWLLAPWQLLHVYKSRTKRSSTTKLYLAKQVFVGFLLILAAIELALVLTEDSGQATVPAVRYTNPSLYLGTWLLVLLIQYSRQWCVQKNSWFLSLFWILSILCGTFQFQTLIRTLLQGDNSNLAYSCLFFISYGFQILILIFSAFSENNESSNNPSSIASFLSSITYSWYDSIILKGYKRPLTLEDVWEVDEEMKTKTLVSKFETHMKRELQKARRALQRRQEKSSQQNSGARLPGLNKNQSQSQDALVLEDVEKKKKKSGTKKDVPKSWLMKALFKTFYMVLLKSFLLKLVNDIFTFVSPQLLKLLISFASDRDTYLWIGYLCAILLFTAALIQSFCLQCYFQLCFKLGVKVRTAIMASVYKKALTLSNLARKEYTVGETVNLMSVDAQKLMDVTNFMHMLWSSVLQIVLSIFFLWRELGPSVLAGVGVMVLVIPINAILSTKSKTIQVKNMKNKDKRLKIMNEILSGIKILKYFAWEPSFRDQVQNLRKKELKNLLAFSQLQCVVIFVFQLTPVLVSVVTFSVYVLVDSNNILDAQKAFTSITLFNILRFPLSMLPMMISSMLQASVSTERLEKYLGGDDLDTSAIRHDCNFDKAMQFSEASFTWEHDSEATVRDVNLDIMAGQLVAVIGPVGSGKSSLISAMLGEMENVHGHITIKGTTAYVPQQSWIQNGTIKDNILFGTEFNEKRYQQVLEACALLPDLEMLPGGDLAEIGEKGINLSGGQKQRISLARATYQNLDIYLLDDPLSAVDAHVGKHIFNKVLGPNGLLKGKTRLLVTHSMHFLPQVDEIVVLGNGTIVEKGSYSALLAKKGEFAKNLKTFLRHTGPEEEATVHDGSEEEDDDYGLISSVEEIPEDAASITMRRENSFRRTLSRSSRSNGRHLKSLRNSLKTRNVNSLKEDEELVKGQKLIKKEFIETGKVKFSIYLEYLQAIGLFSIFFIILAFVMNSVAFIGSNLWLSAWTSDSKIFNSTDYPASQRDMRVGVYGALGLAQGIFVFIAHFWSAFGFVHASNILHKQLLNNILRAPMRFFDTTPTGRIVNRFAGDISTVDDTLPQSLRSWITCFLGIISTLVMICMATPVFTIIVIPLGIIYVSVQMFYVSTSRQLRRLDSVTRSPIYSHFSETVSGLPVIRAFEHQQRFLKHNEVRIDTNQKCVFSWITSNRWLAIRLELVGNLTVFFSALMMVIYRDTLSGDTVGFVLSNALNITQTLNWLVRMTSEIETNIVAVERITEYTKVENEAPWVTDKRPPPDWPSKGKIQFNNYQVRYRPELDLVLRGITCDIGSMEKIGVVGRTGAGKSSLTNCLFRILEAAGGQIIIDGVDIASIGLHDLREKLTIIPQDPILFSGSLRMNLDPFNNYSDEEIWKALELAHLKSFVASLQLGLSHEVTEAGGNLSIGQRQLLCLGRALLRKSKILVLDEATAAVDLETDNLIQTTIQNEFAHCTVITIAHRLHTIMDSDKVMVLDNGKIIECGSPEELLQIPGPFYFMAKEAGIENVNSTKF

[7] = Drug concentration at steady state in human at 75 to 600 mg, iv QD after 24 hrs; format: ADME, organism-based; settings: in vivo, read-out: Css
[8] = AUC in human at 75 to 600 mg, iv QD after 24 hrs; format: ADME, organism-based; settings: in vivo
[9] = AUC in human at 200 to 800 mg, po QD after 24 hrs; format: ADME, organism-based; settings: in vivo
[10] = molecular target: Bile salt export pump (Homo sapiens, UniProt O95342); assay: Inhibition of human BSEP overexpressed in Sf9 cell membrane vesicles assessed as uptake of [3H]-taurocholate in presence of ATP measured after 15 to 20 mins by membrane vesicle transport assay; format: ADME, cell-based
Bile salt export pump, sequence (O95342 whole entry): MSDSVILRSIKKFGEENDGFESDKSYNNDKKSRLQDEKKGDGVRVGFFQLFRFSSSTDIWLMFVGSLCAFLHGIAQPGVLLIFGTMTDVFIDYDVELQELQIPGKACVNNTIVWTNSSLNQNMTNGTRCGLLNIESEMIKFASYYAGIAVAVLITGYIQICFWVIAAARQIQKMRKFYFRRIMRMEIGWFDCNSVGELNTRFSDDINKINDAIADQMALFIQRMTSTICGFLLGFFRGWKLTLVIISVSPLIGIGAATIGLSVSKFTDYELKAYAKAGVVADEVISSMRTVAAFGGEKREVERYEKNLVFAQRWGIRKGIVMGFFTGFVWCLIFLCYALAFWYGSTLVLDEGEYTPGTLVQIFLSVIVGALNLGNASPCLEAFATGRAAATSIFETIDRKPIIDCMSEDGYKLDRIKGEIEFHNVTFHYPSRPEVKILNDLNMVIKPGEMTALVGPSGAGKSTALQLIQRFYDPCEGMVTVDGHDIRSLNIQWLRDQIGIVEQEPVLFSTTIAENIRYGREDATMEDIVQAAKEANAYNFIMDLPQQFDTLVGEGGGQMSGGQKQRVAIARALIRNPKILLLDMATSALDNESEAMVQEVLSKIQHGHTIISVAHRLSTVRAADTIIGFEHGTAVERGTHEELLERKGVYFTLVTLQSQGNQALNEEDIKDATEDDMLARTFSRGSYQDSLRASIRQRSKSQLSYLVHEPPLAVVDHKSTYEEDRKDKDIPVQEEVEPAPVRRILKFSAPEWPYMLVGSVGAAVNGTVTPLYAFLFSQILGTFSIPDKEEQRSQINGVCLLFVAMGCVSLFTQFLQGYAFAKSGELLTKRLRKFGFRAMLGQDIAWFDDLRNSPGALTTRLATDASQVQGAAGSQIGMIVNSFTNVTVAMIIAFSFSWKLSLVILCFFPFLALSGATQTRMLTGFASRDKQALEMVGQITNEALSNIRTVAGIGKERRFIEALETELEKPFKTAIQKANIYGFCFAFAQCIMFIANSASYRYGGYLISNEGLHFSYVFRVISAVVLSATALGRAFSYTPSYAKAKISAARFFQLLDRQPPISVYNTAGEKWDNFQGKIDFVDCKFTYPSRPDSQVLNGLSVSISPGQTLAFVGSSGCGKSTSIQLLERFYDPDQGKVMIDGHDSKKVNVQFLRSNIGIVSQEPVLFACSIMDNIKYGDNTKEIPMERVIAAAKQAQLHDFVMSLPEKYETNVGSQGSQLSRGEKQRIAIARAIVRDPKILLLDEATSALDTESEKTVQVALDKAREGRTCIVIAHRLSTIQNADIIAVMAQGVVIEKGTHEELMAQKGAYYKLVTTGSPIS

[11] = Ratio of drug concentration at steady state in human at 200 to 800 mg, po QD after 24 hrs to IC50 for human MRP4 overexpressed in Sf9 insect cells; format: ADME, organism-based; settings: in vivo
[12] = Ratio of drug concentration at steady state in human at 200 to 800 mg, po QD after 24 hrs to IC50 for human BSEP overexpressed in Sf9 insect cells; format: ADME, organism-based; settings: in vivo
[13] = Drug concentration at steady state in human at 200 to 800 mg, po QD after 24 hrs; format: ADME, organism-based; settings: in vivo, read-out: Css
[14] = Ratio of drug concentration at steady state in human at 100 mg, po BID to IC50 for human MRP4 overexpressed in Sf9 insect cells; format: ADME, organism-based; settings: in vivo
[15] = Ratio of drug concentration at steady state in human at 100 mg, po BID to IC50 for human MRP3 overexpressed in Sf9 insect cells; format: ADME, organism-based; settings: in vivo
[16] = AUC in human at 100 mg, po BID; format: ADME, organism-based; settings: in vivo
[17] = Ratio of drug concentration at steady state in human at 100 mg, po BID to IC50 for human BSEP overexpressed in Sf9 insect cells; format: ADME, organism-based; settings: in vivo
[18] = tested on: Homo sapiens; assay: Drug concentration at steady state in human at 100 mg, po BID; format: ADME, organism-based; settings: in vivo
[19] = Ratio of AUC in liver to plasma in Sprague-Dawley rat at 1500 mg/kg, po administered as single oral gavage measured after 24 hrs by Liquid chromatography/tandem mass spectrometry; format: ADME, organism-based; settings: liver and plasma, read-out: Ratio AUC
[20] = Ratio of drug concentration at steady state in human at 750 mg, po TID or 1250 mg, po BID after 12 hrs to IC50 for human MRP4 overexpressed in Sf9 insect cells; format: ADME, organism-based; settings: in vivo
[21] = AUC in human at 750 mg, po TID or 1250 mg, po BID after 12 hrs; format: ADME, organism-based; parameters: dose 750 mg, time < 12 hr, route oral; settings: in vivo
[22] = tested on: Homo sapiens; assay: Drug concentration at steady state in human at 750 mg, po TID or 1250 mg, po BID after 12 hrs; format: ADME, organism-based; settings: in vivo
[23] = Ratio of drug concentration at steady state in human at 750 mg, po TID or 1250 mg, po BID after 12 hrs to IC50 for human BSEP overexpressed in Sf9 insect cells; format: ADME, organism-based; settings: in vivo
[24] = Drug concentration at steady state in human at 20 to 40 mg/kg, po QD after 24 hrs; format: ADME, organism-based; settings: in vivo, read-out: Css
[25] = Ratio of drug concentration at steady state in human at 20 to 40 mg/kg, po QD after 24 hrs to IC50 for human BSEP overexpressed in Sf9 insect cells; format: ADME, organism-based; settings: in vivo
[26] = Ratio of drug concentration at steady state in human at 20 to 40 mg/kg, po QD after 24 hrs to IC50 for human MRP4 overexpressed in Sf9 insect cells; format: ADME, organism-based; settings: in vivo
[27] = AUC in human at 20 to 40 mg/kg, po QD after 24 hrs; format: ADME, organism-based; settings: in vivo
[28] = Ratio of drug concentration at steady state in human at 1 to 1.5 g, po BID after 12 hrs to IC50 for human BSEP overexpressed in Sf9 insect cells; format: ADME, organism-based; settings: in vivo
[29] = AUC in human at 1 to 1.5 g, po BID after 12 hrs; format: ADME, organism-based; settings: in vivo
[30] = Ratio of drug concentration at steady state in human at 1 to 1.5 g, po BID after 12 hrs to IC50 for human MRP4 overexpressed in Sf9 insect cells; format: ADME, organism-based; settings: in vivo
[31] = Drug concentration at steady state in human at 1 to 1.5 g, po BID after 12 hrs; format: ADME, organism-based; settings: in vivo, read-out: Css
[32] = Ratio of drug concentration at steady state in human at 600 mg, po QD after 24 hrs to IC50 for human BSEP overexpressed in Sf9 insect cells; format: ADME, organism-based; settings: in vivo
[33] = Drug concentration at steady state in human at 600 mg, po QD after 24 hrs; format: ADME, organism-based; settings: in vivo, read-out: Css
[34] = AUC in human at 600 mg, po QD after 24 hrs; format: ADME, organism-based; parameters: time < 24 hr, dose 600 mg, route oral; settings: in vivo
[35] = Drug concentration at steady state in human at 600 mg, po BID after 12 hrs; format: ADME, organism-based; settings: in vivo, read-out: Css
[36] = AUC in human at 600 mg, po BID after 12 hrs; format: ADME, organism-based; parameters: dose 600 mg, time < 12 hr, route oral; settings: in vivo

concentration at 24 h [1]: 266 µM | IC50 [2]: > 133 µM | AUC at 24 h [3]: 6390 µM·h | IC50 [5]: > 133 µM | IC50 [6]: > 133 µM
SMILES: CC(=O)O[C@H]1C[C@@]2(C)[C@@H](C[C@@H](O)[C@H]3[C@@]4(C)CC[C@@H](O)[C@@H](C)[C@@H]4CC[C@@]32C)/C1=C(\CCC=C(C)C)C(=O)O [FUSIDIC ACID]
Ratio [4]: 26.38

concentration at 24 h [7]: 18.6 µM | AUC at 24 h [8]: 447 µM·h | IC50 [2]: 9.3 µM | IC50 [6]: > 133 µM
SMILES: CN(C)C(=O)CCSC(SCCC(=O)O)c1cccc(/C=C/c2ccc3ccc(Cl)cc3n2)c1 (centres undefined) [MK-571]

AUC at 24 h [9]: 2370 µM·h | Ratio [11]: 12.192 | IC50 [2]: > 133 µM | concentration at 24 h [13]: 98.8 µM | IC50 [5]: 8.1 µM | IC50 [6]: > 133 µM
SMILES: Cc1ccc(Nc2nccc(N(C)c3ccc4c(C)n(C)nc4c3)n2)cc1S(N)(=O)=O [PAZOPANIB]
IC50 [10]: 10.3 µM | Ratio [12]: 9.588

Ratio [14]: 0.18 | Ratio [15]: 2.2 | AUC [16]: 32800 ng·h/mL | IC50 [2]: 1.1 µM | IC50 [5]: 13.5 µM | Css [18]: 2.4 µM | Kp at 24 h [19]: 27
SMILES: CCCCNC(=O)c1ccc(Oc2ccc(CC(=O)O)cc2OC)c(NS(=O)(=O)c2ccc(Cl)cc2Cl)c1
IC50 [10]: 11.5 µM | Ratio [17]: 0.21

SMILES: Cc1c(O)cccc1C(=O)N[C@@H](CSc1ccccc1)[C@H](O)CN1C[C@H]2CCCC[C@H]2C[C@H]1C(=O)NC(C)(C)C
Ratio [20]: 0.067 | AUC at 12 h [21]: 77.8 µM·h | Css [22]: 6.482 µM | IC50 [2]: > 133 µM | IC50 [5]: 97 µM | IC50 [6]: > 133 µM | Ratio [23]: 0.549

concentration at 24 h [24]: 138 µM | IC50 [2]: > 133 µM | Ratio [26]: 3.781 | IC50 [5]: 36.5 µM | IC50 [6]: > 133 µM | AUC at 24 h [27]: 3310 µM·h
SMILES: O=C(O)c1ccc(-n2nc(-c3ccccc3O)nc2-c2ccccc2O)cc1 [DEFERASIROX]
IC50 [10]: 58.4 µM | Ratio [25]: 2.363

IC50 [2]: > 133 µM | AUC at 12 h [29]: 45700 ng·h/mL | IC50 [5]: 83 µM | IC50 [6]: > 133 µM | Ratio [30]: 45.853 | concentration at 12 h [31]: 3810 µM
SMILES: COc1c(C)c2c(c(O)c1C/C=C(\C)CCC(=O)OCCN1CCOCC1)C(=O)OC2 [MYCOPHENOLATE MOFETIL]
Ratio [28]: 49.945 | IC50 [10]: 76 µM

concentration at 24 h [33]: 7.56 µM | AUC at 24 h [34]: 181 µM·h | IC50 [2]: > 133 µM | IC50 [5]: > 133 µM | IC50 [6]: > 133 µM
SMILES: CC#C[C@]1(O)CC[C@H]2[C@@H]3CCC4=CC(=O)CCC4=C3[C@@H](c3ccc(N(C)C)cc3)C[C@@]21C [MIFEPRISTONE]
Ratio [32]: 3.743 | IC50 [10]: 2.02 µM

concentration at 12 h [35]: 34.4 µM | AUC at 12 h [36]: 413 µM·h
SMILES: CC(C)c1nc(CN(C)C(=O)N[C@H](C(=O)N[C@@H](Cc2ccccc2)C[C@H](O)[C@H](Cc2ccccc2)NC(=O)OCc2cncs2)C(C)C)cs1 [RITONAVIR]
